Converted amounts (≈) assume the structure as drawn. Counter-ions that a name gives are not always drawn. Like-named read-outs stand apart in the source and are kept apart here.
Columns and labels:
[1] = biological target: alanine racemase enzyme from M. tuberculosis (Mycobacterium tuberculosis, UniProt P9WQA9, DEL103-104); assay type: biochemical
[2] = biological target: T1, alanine racemase enzyme from S. aureus (Staphylococcus aureus, UniProt P63479); test: biochemical; conditions: for inhibition at 2500 µM: read-out: In % (percent inhibition of alanine racemase)
T1 sequence (P63479 1-382): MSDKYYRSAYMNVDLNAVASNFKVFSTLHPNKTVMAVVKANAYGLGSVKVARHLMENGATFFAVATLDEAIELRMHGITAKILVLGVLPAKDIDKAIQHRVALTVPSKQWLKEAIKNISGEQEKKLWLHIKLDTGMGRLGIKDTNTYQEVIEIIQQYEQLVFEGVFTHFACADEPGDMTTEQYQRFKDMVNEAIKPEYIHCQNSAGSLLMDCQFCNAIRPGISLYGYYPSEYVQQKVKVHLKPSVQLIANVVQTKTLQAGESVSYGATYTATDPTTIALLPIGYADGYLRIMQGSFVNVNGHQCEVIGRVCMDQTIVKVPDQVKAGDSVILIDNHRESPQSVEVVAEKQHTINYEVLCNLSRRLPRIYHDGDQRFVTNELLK

[3] = biological target: alanine racemase enzyme from P. aeruginosa (Pseudomonas aeruginosa, UniProt Q9HTQ2, A178S/N326M/S138R/S262R); test: biochemical; conditions: for inhibition at 2500 µM: read-out: In % (percent inhibition of alanine racemase)
[4] = biological target: alanine racemase enzyme from E. Coli (Escherichia coli, UniProt P0A6B4); test: biochemical; conditions: for inhibition at 2500 µM: read-out: In % (percent inhibition of alanine racemase)
S. aureus = test: microbe, parasite or virus in culture; assay type: cell-based
E. Coli = test: microbe, parasite or virus in culture; assay type: cell-based
M. tuberculosis [5] = assay type: cell-based
M. tuberculosis [6] = test: microbe, parasite or virus in culture; assay type: cell-based
[7] = S. aureus ALR, % Inhibition at 2.5 mM
[8] = P. aeruginosa ALR, % Inhibition at 2.5 mM
[9] = P. aeruginosa ALR, read-out: Ki
[10] = E. Coli ALR, % Inhibition at 2.5 mM
[11] = Staphylococcus aureus, read-out: MIC
[12] = Escherichia coli, read-out: MIC
[13] = TB Assay of Hydroxamate Candidates, DMSO control 7, Water control 8
[14] = Mycobacterium tuberculosis, MGIT Assay, read-out: MIC

alanine racemase enzyme from M. tuberculosis, sequence (P9WQA9 whole entry, looked up, stated change not applied): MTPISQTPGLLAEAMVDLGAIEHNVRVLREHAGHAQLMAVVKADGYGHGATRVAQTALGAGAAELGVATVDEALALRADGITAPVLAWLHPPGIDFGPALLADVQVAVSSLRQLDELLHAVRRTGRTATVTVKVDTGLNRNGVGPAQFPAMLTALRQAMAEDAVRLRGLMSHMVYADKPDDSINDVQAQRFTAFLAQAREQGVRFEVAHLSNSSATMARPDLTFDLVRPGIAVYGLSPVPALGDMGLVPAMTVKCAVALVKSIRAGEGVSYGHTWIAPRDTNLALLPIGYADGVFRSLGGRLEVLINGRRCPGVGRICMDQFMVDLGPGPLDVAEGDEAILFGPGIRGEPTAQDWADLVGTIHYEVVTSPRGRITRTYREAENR
alanine racemase enzyme from P. aeruginosa, sequence (Q9HTQ2 whole entry S138R/A178S/S262R/N326M): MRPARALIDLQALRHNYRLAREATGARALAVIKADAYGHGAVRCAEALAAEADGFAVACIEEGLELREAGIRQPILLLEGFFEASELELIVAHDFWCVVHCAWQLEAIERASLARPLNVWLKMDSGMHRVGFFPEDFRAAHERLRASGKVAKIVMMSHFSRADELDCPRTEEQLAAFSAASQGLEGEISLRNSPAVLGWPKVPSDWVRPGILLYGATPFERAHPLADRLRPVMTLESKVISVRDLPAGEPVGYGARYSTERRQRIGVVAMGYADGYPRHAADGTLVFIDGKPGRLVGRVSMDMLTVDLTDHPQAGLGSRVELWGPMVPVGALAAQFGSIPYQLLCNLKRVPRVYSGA
alanine racemase enzyme from E. Coli, sequence (P0A6B4 whole entry): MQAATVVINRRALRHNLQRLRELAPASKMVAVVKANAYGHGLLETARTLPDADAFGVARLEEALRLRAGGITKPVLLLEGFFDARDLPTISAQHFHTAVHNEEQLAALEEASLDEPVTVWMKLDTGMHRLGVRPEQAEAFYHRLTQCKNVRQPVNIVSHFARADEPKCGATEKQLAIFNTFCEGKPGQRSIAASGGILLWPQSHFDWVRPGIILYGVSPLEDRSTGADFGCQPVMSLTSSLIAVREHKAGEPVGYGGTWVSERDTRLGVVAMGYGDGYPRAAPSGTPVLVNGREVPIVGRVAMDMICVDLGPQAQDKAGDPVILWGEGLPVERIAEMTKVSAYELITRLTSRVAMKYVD

Compound | In % (percent inhibition of alanine racemase) [1] [%] | inhibition at 2500 µM [2, 7] [%] | Ki ([2]; S. aureus ALR, read-out: Ki) [µM] | inhibition at 2500 µM [3, 8] [%] | Ki [3, 9] [µM] | inhibition at 2500 µM [4, 10] [%] | Ki ([4]; E. Coli ALR, read-out: Ki) [µM] | MIC (S. aureus; [11]) [mM] | MIC (E. Coli; [12]) [mM] | % In in TB-ALR-assay [1] [%] | Days of Detection (M. tuberculosis [5]; [13]) [days] | MIC (M. tuberculosis [6]; [14]) [µg/mL] | In % (percent inhibition of alanine racemase) [3, 8] [%] | MIC (S. aureus) [mM] | MIC (E. Coli) [mM] | other results
NC(=O)OCC(N)C(=O)NO (centres unmarked) [H2NCH(CH2OCONH2)C(O)NILIOH] | 97 ± 5 | 93 ± 4 | 56 | 94 ± 5 | 30 | 96 ± 8 | 8 | > 5 | > 5 |  |  |  |  |  |  | 
C[C@H](N)C(=O)NO.Cl [HCl•H2NCH(CH3)C(O)NHOH*, L-Alanine Hydroxamic Acid Hydrochloride] |  |  |  |  |  |  |  |  |  |  |  |  |  |  |  | Ki ([2]; Ki): 1300 µM; inhibition at 2500 µM [2]: 32 ± 8%; Ki ([3]; Ki): 1060 µM; inhibition at 2500 µM [3]: 33 ± 2%; Ki ([4]; Ki): 2780 µM; inhibition at 2500 µM [4]: 39 ± 8%; MIC (S. aureus; Staphylococcus aureus): > 5 mM; MIC (E. Coli; Escherichia coli): > 5 mM; melting point: 178 to 180 °C
NC(=O)C(=O)NO [H2NC(O)C(O)NHOH, N-Hydroxyoxalamide] | 93 ± 8 | 97 | 17 | 99 ± 4 | 16 | 97 ± 4 | 52 | > 5 | > 5 | 93 | 32 | 50 (≈ 480 µM) |  |  |  | 
CONC(=O)CN.O=C(O)C(F)(F)F [TFA•H2NCH2C(O)NHOCH3, O-Methylglycine Hydroxamic Acid Trifluoroacetic Acid] | 66 | 47 | 1850 | 55 | 1510 | 67 | 1340 | > 5 | > 5 | 66 | >40 | 50 |  |  |  | 
N-Benzylglycine Hydroxamic Acid [PhCH2NHCH2C(O)NHOH] | 88 ± 3 |  | 1980 |  | 1240 |  | 1840 |  |  | 88 | 18.5 |  | 39 ± 9 | >5 | >5 | Ki [1]: 519 µM; In % (percent inhibition of alanine racemase) [2, 7]: 53 ± 13%; In % (percent inhibition of alanine racemase) [4, 10]: 0.58 ± 3%; MIC (M. tuberculosis [6]; MGIT Assay): 50 µg/mL
NCC(=O)NO [H2NOH2G(O)NHOH] | 100 ± 2 |  | 34 |  | 33 |  | 75 |  |  |  |  |  | 90 ± 2 | >5 | >5 | In % (percent inhibition of alanine racemase) [2, 7]: 92 ± 3%; In % (percent inhibition of alanine racemase) [4, 10]: 90 ± 4%
NCC(=O)NO [TFA•H2NCH2G(O)NHOH, glycine hydroxamic trifluoracetic acid] | 104 ± 4 | 99 ± 3 | 23 |  | 20 | 94 ± 4 | 78 |  |  |  |  |  | 112 ± 7 | >5 | >5 | 
Cl.NCC(=O)NO [HCl•H2NCH2C(O)NHOH, Glycine Hydroxamic Acid Hydrochloride] | 105 ± 6 |  |  |  |  |  |  |  |  | 100 |  |  |  | >5 |  | Ki ([2]; Ki): 217 µM; inhibition at 2500 µM [2]: 95 ± 1%; Ki ([3]; Ki): 201 µM; inhibition at 2500 µM [3]: 114 ± 14%; Ki ([4]; Ki): 268 µM; inhibition at 2500 µM [4]: 88 ± 4%; MIC (E. Coli; Escherichia coli): > 5 mM; Days of Detection (M. tuberculosis [5]): 16.5 days; MIC (M. tuberculosis [6]; Mycobacterium tuberculosis): 200 µg/mL
NCC(=O)NO [H2NCH2C(O)NHOH, glycine hydroxamic acid] | 100 ± 1 |  | 90 |  | 65 |  | 39 |  |  | 100 | >40 | 50 (≈ 555 µM) | 94 ± 1 | >0.5 | >5 | In % (percent inhibition of alanine racemase) [2, 7]: 91 ± 3%; In % (percent inhibition of alanine racemase) [4, 10]: 90 ± 5%
C[C@@H](N)C(=O)NO [Hcl•H2NCH(CH3)C(O)NHOH, D-Alanine Hydroxamic Acid Hydrochloride] |  |  |  |  |  |  |  |  |  |  |  |  |  |  |  | Ki ([2]; Ki): 2680 µM; inhibition at 2500 µM [2]: 33 ± 6%; Ki ([3]; Ki): 1010 µM; inhibition at 2500 µM [3]: 29 ± 6%; Ki ([4]; Ki): 5200 µM; inhibition at 2500 µM [4]: 35 ± 7%; MIC (S. aureus; Staphylococcus aureus): > 5 mM; MIC (E. Coli; Escherichia coli): > 5 mM
N,O-Methylglycine Hydroxamic Acid Trifluoroacetic Acid [TFA•H2NCH2C(O)N(CH3)OCH3] | 66 ± 4 |  | 590 |  | 633 |  | 875 |  |  | 66 |  |  | 68 ± 5 | >5 | >5 | Ki [1]: 644 µM; In % (percent inhibition of alanine racemase) [2, 7]: 66 ± 3%; In % (percent inhibition of alanine racemase) [4, 10]: 49 ± 2%; Days of Detection (M. tuberculosis [5]): 9 days; MIC (M. tuberculosis [6]): >200 µg/mL
N[C@@H]1CON=C1O [D-cycloserine, reference compound] | 93 | 94 | 10 | 95 | 10 | 93 | 10 | 0.2 (≈ 20.4 µg/mL) |  | 96 | >40 | < 12.5 |  |  |  | 
NC(CO)C(=O)NO (centres unmarked) [H2NCH(CH2OH)C(O)NHOH] | 33 ± 8 | 19 ± 8 | 7200 | 28 ± 5 | 5100 | 0 |  | > 5 | > 5 | 33 | 21.5 | 100 (≈ 833 µM) |  |  |  | 
CC(N)C(=O)NO (centres unmarked) [HzNGH(~Ha)G(O)NHOH] | 48 ± 9 | 57 ± 4 | 810 | 66 ± 3 | 656 | 58 ± 2 | 756 | > 5 | > 5 |  |  |  |  |  |  | 
